These results are taken from patent publication US8722656B2, “Cephalosporins useful as antibacterial agents” (Zoetis LLC, priority 2011, dated 2014).

The test system of one assay is E. coli 25922. The assay can be described thus: Dilution antimicrobial susceptibility test (M07-A8), E. coli. The format is cell-based, Escherichia coli. The settings on record: for MIC: Escherichia coli, antibacterial activity by dilution susceptibility test, isolate 25922; for E. coli/P. multocida: selectivity for P. multocida over E. coli (ratio of the two values). On the procedure:
(§1) Compounds of the present invention were tested against an assortment of Gram-negative and Gram-positive organisms using the industrial standard techniques described in Methods for Dilution Antimicrobial Susceptibility Tests for Bacteria That grow Aerobically; Approved Standard-Eighth Edition, […]-A8, Vol. 29 No. 2 Replaces […]-A7 Vol. 26 No. 2. […] When comparing the activity against these isolates with that of the marketed human health drug of cefepime (screened in the same panel), the exemplified compounds of the present invention show >200 times more selectivity over E. coli.

Another assay concerns M. haemo 43411. The assay can be described thus: Dilution antimicrobial susceptibility test (M07-A8), M. haemolytica. The assay is classed as cell-based. The settings on record: Mannheimia haemolytica; antibacterial activity by dilution susceptibility test, isolate 43411. The protocol:
as §1

Another assay has as its system P. multo 43719. Put plainly: Dilution antimicrobial susceptibility test (M07-A8), P. multocida. The format is cell-based. The following applies: Pasteurella multocida; antibacterial activity by dilution susceptibility test, isolate 43719. On the procedure: as §1

Converted amounts (≈) assume the structure as drawn.

As to `CNS(=O)(=O)c1cc(C)cc(CC2=C(C(=O)O)N3C(=O)[C@@H](NC(=O)/C(=N\OC)c4csc(N)n4)[C@H]3SC2)c1` [Example 27, (6R,7R)-7-{[(2Z)-2-(2-amino-1,3-thiazol-4-yl)-2-(methoxyimino)acetyl]amino}-3-[3-methyl-5-(methylsulfamoyl)benzyl]-8-oxo-5-thia-1-azabicyclo[4.2.0]oct-2-ene-2-carboxylic acid], the MIC was 8 µg/mL (≈ 13.8 µM) against E. coli 25922, 0.008 µg/mL (≈ 0.0138 µM) against M. haemo 43411 and 0.015 µg/mL (≈ 0.0258 µM) against P. multo 43719. In addition, the “E. coli/P. multocida” value with E. coli 25922 worked out at 533.

Regarding `CO/N=C(\C(=O)N[C@@H]1C(=O)N2C(C(=O)O)=C(Cc3cccc(S(=O)(=O)N(C)C)c3)CS[C@H]12)c1csc(N)n1` [Example 25, (6R,7R)-7-{[(2Z)-2-(2-amino-1,3-thiazol-4-yl)-2-(methoxyimino)acetyl]amino}-3-[3-(dimethylsulfamoyl)benzyl]-8-oxo-5-thia-1-azabicyclo[4.2.0]oct-2-ene-2-carboxylic acid], the MIC in the assay with E. coli 25922 was determined as 8 µg/mL (≈ 13.8 µM); in the assay with M. haemo 43411, 0.008 µg/mL (≈ 0.0138 µM); with P. multo 43719, 0.008 µg/mL (≈ 0.0138 µM). Further, the “E. coli/P. multocida” value in the assay on E. coli 25922 stood at 1000.

Turning to `CO/N=C(\C(=O)N[C@@H]1C(=O)N2C(C(=O)O)=C(Cc3cc(NS(C)(=O)=O)c(C)cc3C)CS[C@H]12)c1csc(N)n1` [Example 15, (6R,7R)-7-{[(2Z)-2-(2-amino-1,3-thiazol-4-yl)-2-(methoxyimino)acetyl]amino}-3-{2,4-dimethyl-5-[(methylsulfonyl)amino]benzyl}-8-oxo-5-thia-1-azabicyclo[4.2.0]oct-2-ene-2-carboxylic acid], the results for the MIC in the assay on E. coli 25922, in the assay on M. haemo 43411 and in the assay with P. multo 43719 were 32 µg/mL (≈ 53.8 µM), 0.5 µg/mL (≈ 0.841 µM) and 0.125 µg/mL (≈ 0.21 µM), respectively. Also, in the assay on E. coli 25922, the “E. coli/P. multocida” value stood at 256.

For the compound `CNS(=O)(=O)c1ccc(C)c(CC2=C(C(=O)O)N3C(=O)[C@@H](NC(=O)/C(=N\OC)c4csc(N)n4)[C@H]3SC2)c1` [Example 24, (6R,7R)-7-{[(2Z)-2-(2-amino-1,3-thiazol-4-yl)-2-(methoxyimino)acetyl]amino}-3-[2-methyl-5-(methylsulfamoyl)benzyl]-8-oxo-5-thia-1-azabicyclo[4.2.0]oct-2-ene-2-carboxylic acid], the MIC worked out at 4 µg/mL (≈ 6.89 µM) against E. coli 25922, 0.008 µg/mL (≈ 0.0138 µM) against M. haemo 43411 and 0.015 µg/mL (≈ 0.0258 µM) with P. multo 43719. Further, the “E. coli/P. multocida” value in the assay on E. coli 25922 stood at 266.

With `CCN(CCSC(C)=O)S(=O)(=O)c1cccc(CC2=C(C(=O)O)N3C(=O)[C@@H](NC(=O)/C(=N\OC)c4csc(N)n4)[C@H]3SC2)c1` [Example 21, (6R,7R)-3-(3-{[2-(acetylsulfanyl)ethyl](ethyl)sulfamoyl}benzyl)-7-{[(2Z)-2-(2-amino-1,3-thiazol-4-yl)-2-(methoxyimino)acetyl]amino}-8-oxo-5-thia-1-azabicyclo[4.2.0]oct-2-ene-2-carboxylic acid], the MIC in the assay with E. coli 25922 was found to be 32 µg/mL (≈ 46.9 µM); against M. haemo 43411, 0.125 µg/mL (≈ 0.183 µM); against P. multo 43719, 0.03 µg/mL (≈ 0.0439 µM). For the same compound, the “E. coli/P. multocida” value with E. coli 25922 was 1066.

Regarding `CO/N=C(\C(=O)N[C@@H]1C(=O)N2C(C(=O)O)=C(Cc3cccc(CSC(C)=O)c3C)CS[C@H]12)c1csc(N)n1` [Example 1, (6R,7R)-3-{3-[(acetylsulfanyl)methyl]-2-methylbenzyl}-7-{[(2Z)-2-(2-amino-1,3-thiazol-4-yl)-2-(methoxyimino)acetyl]amino}-8-oxo-5-thia-1-azabicyclo[4.2.0]oct-2-ene-2-carboxylic acid], the results for the MIC in the assay on E. coli 25922, in the assay on M. haemo 43411 and against P. multo 43719 were 16 µg/mL (≈ 27.8 µM), 0.06 µg/mL (≈ 0.104 µM) and 0.03 µg/mL (≈ 0.0521 µM), respectively. Further, the “E. coli/P. multocida” value with E. coli 25922 turned out to be 533.

With `CO/N=C(\C(=O)N[C@@H]1C(=O)N2C(C(=O)O)=C(Cc3cc(CSC(C)=O)ccc3C)CS[C@H]12)c1csc(N)n1` [Example 3, (6R,7R)-3-{5-[(acetylsulfanyl)methyl]-2-methylbenzyl}-7-{[(2Z)-2-(2-amino-1,3-thiazol-4-yl)-2-(methoxyimino)acetyl]amino}-8-oxo-5-thia-1-azabicyclo[4.2.0]oct-2-ene-2-carboxylic acid], the results for the MIC with E. coli 25922, in the assay on M. haemo 43411 and in the assay on P. multo 43719 were 32 µg/mL (≈ 55.6 µM), 0.25 µg/mL (≈ 0.434 µM) and 0.125 µg/mL (≈ 0.217 µM), respectively. In the assay with E. coli 25922, the “E. coli/P. multocida” value was found to be 256.

For `CO/N=C(\C(=O)N[C@@H]1C(=O)N2C(C(=O)O)=C(Cc3c(C)cc(CSC(C)=O)cc3C)CS[C@H]12)c1csc(N)n1` [Example 6, (6R,7R)-3-{4-[(acetylsulfanyl)methyl]-2,6-dimethylbenzyl}-7-{[(2Z)-2-(2-amino-1,3-thiazol-4-yl)-2-(methoxyimino)acetyl]amino}-8-oxo-5-thia-1-azabicyclo[4.2.0]oct-2-ene-2-carboxylic acid], the MIC is 32 µg/mL (≈ 54.3 µM) in the assay with E. coli 25922, 0.5 µg/mL (≈ 0.848 µM) in the assay on M. haemo 43411 and 0.25 µg/mL (≈ 0.424 µM) against P. multo 43719. The “E. coli/P. multocida” value with E. coli 25922 is listed as 128.

As for `CO/N=C(\C(=O)N[C@@H]1C(=O)N2C(C(=O)O)=C(Cc3ccc(CSC(C)=O)cc3C)CS[C@H]12)c1csc(N)n1` [Example 2, (6R,7R)-3-{4-[(acetylsulfanyl)methyl]-2-methylbenzyl}-7-{[(2Z)-2-(2-amino-1,3-thiazol-4-yl)-2-(methoxyimino)acetyl]amino}-8-oxo-5-thia-1-azabicyclo[4.2.0]oct-2-ene-2-carboxylic acid], the figures for the MIC against E. coli 25922, with M. haemo 43411 and against P. multo 43719 were 32 µg/mL (≈ 55.6 µM), 0.25 µg/mL (≈ 0.434 µM) and 0.06 µg/mL (≈ 0.104 µM), respectively. Also, the “E. coli/P. multocida” value with E. coli 25922 is reported as 533.

Consider `CO/N=C(\C(=O)N[C@@H]1C(=O)N2C(C(=O)O)=C(Cc3cc(NS(C)(=O)=O)cc(C)c3C)CS[C@H]12)c1csc(N)n1` [Example 14, (6R,7R)-7-{[(2Z)-2-(2-amino-1,3-thiazol-4-yl)-2-(methoxyimino)acetyl]amino}-3-{2,3-dimethyl-5-[(methylsulfonyl)amino]benzyl}-8-oxo-5-thia-1-azabicyclo[4.2.0]oct-2-ene-2-carboxylic acid], for which the MIC against E. coli 25922 was found to be 16 µg/mL (≈ 26.9 µM); with M. haemo 43411 it was 0.06 µg/mL (≈ 0.101 µM); with P. multo 43719, 0.03 µg/mL (≈ 0.0504 µM). In addition, in the assay with E. coli 25922, the “E. coli/P. multocida” value was 533.

Take `CO/N=C(\C(=O)N[C@@H]1C(=O)N2C(C(=O)O)=C(Cc3cccc(NC(=O)CSC(C)=O)c3)CS[C@H]12)c1csc(N)n1` [Example 12, (6R,7R)-3-(3-{[(acetylsulfanyl)acetyl]amino}benzyl)-7-{[(2Z)-2-(2-amino-1,3-thiazol-4-yl)-2-(methoxyimino)acetyl]amino}-8-oxo-5-thia-1-azabicyclo[4.2.0]oct-2-ene-2-carboxylic acid]: the figures for the MIC with E. coli 25922, against M. haemo 43411 and in the assay with P. multo 43719 were 8 µg/mL (≈ 13.2 µM), 0.03 µg/mL (≈ 0.0496 µM) and 0.06 µg/mL (≈ 0.0992 µM), respectively. Further, in the assay on E. coli 25922, the “E. coli/P. multocida” value amounted to 133.
